Test results as given in ChEMBL document CHEMBL1135488, “Prediction of volume of distribution values in humans for neutral and basic drugs using physicochemical measurements and plasma protein binding data” (J Med Chem, 2002).

Legend:
[1] = pH 7.4
in vitro [2] = conditions: human, plasma
clinical = conditions: human, in vivo, iv
[3] = Ionisation constant (pKa); format: physicochemical
in vitro [4] = conditions: tissues

CCC(C)n1ncn(-c2ccc(N3CCN(c4ccc(OCC5COC(Cn6cncn6)(c6ccc(Cl)cc6Cl)O5)cc4)CC3)cc2)c1=O (stereo unspecified) [ITRACONAZOLE]
chromatographic logD (physchem): 5.79
Fraction ionised [1]: 0
fraction unbound (in vitro [2]): 0.028
Vd (clinical): 3.9 L/kg
pKa [3]: Not Active

Cc1ccc(O)c([C@H](CCN(C(C)C)C(C)C)c2ccccc2)c1 [TOLTERODINE]
chromatographic logD (physchem): 1.04
Fraction ionised [1]: 0.997
fraction unbound (in vitro [4]): 0.012
Vd (clinical): 1.3 L/kg
pKa [3]: 9.87

CCN(CC)CCCC(C)Nc1c2ccc(Cl)cc2nc2ccc(OC)cc12 (stereo unspecified) [QUINACRINE]
chromatographic logD (physchem): 1.1
fraction unbound (in vitro [2]): 0.103
Vd (clinical): 223 L/kg
pKa [3]: 10.2

CC(=O)Nc1ccc(O)cc1 [ACETAMINOPHEN]
chromatographic logD (physchem): 0.38
Fraction ionised [1]: 0
fraction unbound (in vitro [4]): 0.503
fraction unbound (in vitro [2]): 1
Vd (clinical): 0.95 L/kg
pKa [3]: Not Active

CN1CCCC(n2nc(Cc3ccc(Cl)cc3)c3ccccc3c2=O)CC1 (stereo unspecified) [AZELASTINE]
chromatographic logD (physchem): 1.93
Fraction ionised [1]: 0.993
fraction unbound (in vitro [4]): 0.004
fraction unbound (in vitro [2]): 0.17
Vd (clinical): 15 L/kg
pKa [3]: 9.54

CCc1nn(CCCN2CCN(c3cccc(Cl)c3)CC2)c(=O)n1CCOc1ccccc1 [NEFAZODONE]
chromatographic logD (physchem): 4.83
Fraction ionised [1]: 0.197
fraction unbound (in vitro [4]): 0.008
Vd (clinical): 0.51 L/kg
pKa [3]: 6.79

CCCCCc1cc(O)c2c(c1)OC(C)(C)[C@@H]1CCC(C)=C[C@@H]21 [DRONABINOL]
chromatographic logD (physchem): 6.8
Fraction ionised [1]: 0
fraction unbound (in vitro [4]): 0.001
fraction unbound (in vitro [2]): 0.03
Vd (clinical): 9.8 L/kg
